# Experimental data taken from ChEMBL document CHEMBL1201862, “PubChem BioAssay data set” (2004).
#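 The compound was tested at five concentrations on cells cultured in 96-well plates, with a 48-hour exposure period. The concentration for 50% growth inhibition is given as GI50.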 Active and inactive are the calls of the source. Cut-off read from the data, not from the text of the source: active = GI50 up to about 1.1 µM and inactive = higher.
# Key:
# Assay in all cases: inhibition of tumour cell growth, NCI panel, 48 h
# EKVX = test system: EKVX
# HOP-62 = test system: HOP-62
# SF-295 = test system: SF-295
# TK-10 = test system: TK-10
# HOP-92 = test system: HOP-92
# RPMI-8226 = test system: RPMI-8226
# SW-620 = test system: SW-620
# UACC-257 = test system: UACC-257
# OVCAR-5 = test system: OVCAR-5
# KM12 = test system: KM12
# SK-OV-3 = test system: SK-OV-3
# HT-29 = test system: HT-29
# SK-MEL-2 = test system: SK-MEL-2
# NCI-H226 = test system: NCI-H226
# SK-MEL-5 = test system: SK-MEL-5
# LOX IMVI = test system: LOX IMVI
# HCC 2998 = test system: HCC 2998
# K562 = test system: K562
# UACC-62 = test system: UACC-62
Structure (SMILES),GI50 (EKVX),GI50 (HOP-62),GI50 (SF-295),GI50 (TK-10),GI50 (HOP-92),GI50 (RPMI-8226),GI50 (SW-620),GI50 (UACC-257),GI50 (OVCAR-5),GI50 (KM12),GI50 (SK-OV-3),GI50 (HT-29),GI50 (SK-MEL-2),GI50 (NCI-H226),GI50 (SK-MEL-5),GI50 (LOX IMVI),GI50 (HCC 2998),GI50 (K562),GI50 (UACC-62)
COC1C(O)C(C)OC(O[C@@H]2C[C@H]3CC[C@@H]4[C@H](CC[C@]5(C)[C@@H](C6=CC(=O)OC6)CC[C@]45O)[C@@]3(C)[C@H](O)C2)C1O (stereo partly specified),< 0.0474 µM (active),0.0333 µM (active),< 0.0371 µM (active),0.0361 µM (active),0.106 µM (active),0.0512 µM (active),0.0782 µM (active),0.1 µM (active),0.114 µM (active),0.296 µM (active),< 0.0193 µM (active),0.0849 µM (active),0.114 µM (active),0.151 µM (active),< 0.0258 µM (active),< 0.0362 µM (active),0.719 µM (active),0.0785 µM (active),0.142 µM (active)
CC1=C[C@]2(O)C(=O)[C@H](C)C[C@H]3[C@@H](CC[C@@](C)(O)/C=C\2C1=O)C3(C)C,70.5 µM (inactive),> 49.8 µM (inactive),24.5 µM (inactive),32 µM (inactive),23 µM (inactive),> 41.9 µM (inactive),19.4 µM (inactive),17.4 µM (inactive),> 76.7 µM (inactive),34.7 µM (inactive),> 56.8 µM (inactive),28.4 µM (inactive),17.9 µM (inactive),33.7 µM (inactive),21.6 µM (inactive),17.3 µM (inactive),30.3 µM (inactive),> 100 µM (inactive),16 µM (inactive)
Cc1ccc(N2C(=O)C(=CN)C(=O)N(c3ccc(C)cc3)C2=O)cc1,> 100 µM (inactive),44.2 µM (inactive),> 100 µM (inactive),48.4 µM (inactive),31.1 µM (inactive),–,> 100 µM (inactive),> 100 µM (inactive),> 100 µM (inactive),> 100 µM (inactive),19.2 µM (inactive),> 100 µM (inactive),66.8 µM (inactive),> 100 µM (inactive),> 100 µM (inactive),> 100 µM (inactive),10 µM (inactive),> 100 µM (inactive),68.9 µM (inactive)
ClC1CCC2OOC1O2 (stereo unspecified),> 100 µM (inactive),> 100 µM (inactive),> 100 µM (inactive),> 100 µM (inactive),> 100 µM (inactive),> 100 µM (inactive),> 100 µM (inactive),> 100 µM (inactive),> 100 µM (inactive),> 100 µM (inactive),> 100 µM (inactive),89.5 µM (inactive),> 100 µM (inactive),> 100 µM (inactive),> 100 µM (inactive),> 100 µM (inactive),> 100 µM (inactive),> 100 µM (inactive),89.1 µM (inactive)
COc1cccc2c1C(=O)c1c(O)c3c(c(O)c1C2=O)C[C@@](O)(C(C)=O)CC3S(=O)(=O)O (stereo partly specified),> 100 µM (inactive),> 100 µM (inactive),> 100 µM (inactive),> 100 µM (inactive),> 100 µM (inactive),> 100 µM (inactive),> 100 µM (inactive),> 100 µM (inactive),> 100 µM (inactive),> 100 µM (inactive),> 100 µM (inactive),> 100 µM (inactive),> 100 µM (inactive),> 100 µM (inactive),> 100 µM (inactive),> 100 µM (inactive),> 100 µM (inactive),> 100 µM (inactive),> 100 µM (inactive)
CN(Cc1cnc2nc(N)nc(N)c2n1)c1ccc(C(=O)NC(CCC(=O)O)C(=O)O)cc1 (stereo unspecified),–,–,< 0.0256 µM (active),0.869 µM (active),25.4 µM (inactive),< 0.0284 µM (active),< 0.01 µM (active),0.815 µM (active),> 100 µM (inactive),< 0.0164 µM (active),1.24 µM (inactive),< 0.01 µM (active),> 100 µM (inactive),5.38 µM (inactive),0.0661 µM (active),< 0.01 µM (active),41.5 µM (inactive),< 0.01 µM (active),< 0.0136 µM (active)
CO[C@@]12C[C@@H](C)C3=CCC(C)=C3CC1=C(C)C(=O)O2,> 100 µM (inactive),–,> 100 µM (inactive),> 100 µM (inactive),> 100 µM (inactive),57.8 µM (inactive),> 100 µM (inactive),> 100 µM (inactive),> 100 µM (inactive),> 100 µM (inactive),68.7 µM (inactive),> 100 µM (inactive),> 100 µM (inactive),> 100 µM (inactive),> 100 µM (inactive),> 100 µM (inactive),> 100 µM (inactive),53.3 µM (inactive),> 100 µM (inactive)
O=C1c2ccccc2C(=O)C1(O)c1c[nH]c2ccccc12,> 100 µM (inactive),> 100 µM (inactive),> 100 µM (inactive),> 100 µM (inactive),> 100 µM (inactive),> 100 µM (inactive),> 100 µM (inactive),> 100 µM (inactive),> 100 µM (inactive),> 100 µM (inactive),> 100 µM (inactive),> 100 µM (inactive),> 100 µM (inactive),–,–,> 100 µM (inactive),–,> 100 µM (inactive),> 100 µM (inactive)
NC1=NN(c2ccccc2)C(=O)C1C(=O)C(=O)Nc1ccc(Cl)cc1 (stereo unspecified),> 100 µM (inactive),> 100 µM (inactive),> 100 µM (inactive),> 100 µM (inactive),> 100 µM (inactive),> 100 µM (inactive),> 100 µM (inactive),> 100 µM (inactive),> 100 µM (inactive),> 100 µM (inactive),> 100 µM (inactive),> 100 µM (inactive),> 100 µM (inactive),> 100 µM (inactive),> 100 µM (inactive),> 100 µM (inactive),> 100 µM (inactive),> 100 µM (inactive),> 100 µM (inactive)
CCC1(O)C[C@H]2CN(CCCc3c([nH]c4ccccc34)[C@@](C(=O)OC)(c3cc4c(cc3OC)N(C)C3[C@](O)(C(=O)OC)[C@H](OC(C)=O)[C@]5(CC)C=CCN6CC[C@]43[C@H]65)C2)C1 (stereo partly specified),1.63 µM (inactive),0.465 µM (active),0.275 µM (active),> 10 µM (inactive),> 10 µM (inactive),0.908 µM (active),0.497 µM (active),1.34 µM (inactive),3.34 µM (inactive),0.578 µM (active),0.526 µM (active),0.425 µM (active),0.63 µM (active),–,0.333 µM (active),0.583 µM (active),1.75 µM (inactive),0.354 µM (active),0.525 µM (active)
CC(C)c1cccc(C(C)C)c1NC(=O)C(=O)C1CCC2=C(Sc3ccccc3N2)C1=O (stereo unspecified),> 100 µM (inactive),> 100 µM (inactive),80.5 µM (inactive),> 100 µM (inactive),> 100 µM (inactive),44.4 µM (inactive),12 µM (inactive),67.3 µM (inactive),41.5 µM (inactive),> 100 µM (inactive),60.8 µM (inactive),58.5 µM (inactive),> 100 µM (inactive),29.4 µM (inactive),56.2 µM (inactive),53.6 µM (inactive),> 100 µM (inactive),34.9 µM (inactive),> 100 µM (inactive)
CCCNC(=O)Nc1c([N+](=O)[O-])cc(C(F)(F)F)cc1[N+](=O)[O-],> 100 µM (inactive),> 100 µM (inactive),84.9 µM (inactive),> 100 µM (inactive),> 100 µM (inactive),83.9 µM (inactive),40.8 µM (inactive),36.3 µM (inactive),> 100 µM (inactive),55.5 µM (inactive),> 100 µM (inactive),37.4 µM (inactive),> 100 µM (inactive),> 100 µM (inactive),28.4 µM (inactive),62.8 µM (inactive),–,47.1 µM (inactive),37.3 µM (inactive)
CCOC(=O)c1ccc(O)cc1 [ETHYLPARABEN],> 100 µM (inactive),> 100 µM (inactive),> 100 µM (inactive),> 100 µM (inactive),> 100 µM (inactive),> 100 µM (inactive),> 100 µM (inactive),> 100 µM (inactive),> 100 µM (inactive),> 100 µM (inactive),> 100 µM (inactive),> 100 µM (inactive),> 100 µM (inactive),> 100 µM (inactive),–,> 100 µM (inactive),> 100 µM (inactive),> 100 µM (inactive),> 100 µM (inactive)
N#CC1=C(N)n2c(s/c(=C\c3ccc(Cl)cc3)c2=O)=C(c2nc3ccccc3[nH]2)C1c1ccc(Cl)cc1 (stereo unspecified),1.88 µM (inactive),2.23 µM (inactive),–,0.596 µM (active),0.203 µM (active),2.23 µM (inactive),1.37 µM (inactive),2.48 µM (inactive),2.02 µM (inactive),1.42 µM (inactive),–,–,2.14 µM (inactive),1.91 µM (inactive),3.02 µM (inactive),1.65 µM (inactive),0.411 µM (active),1.91 µM (inactive),1.23 µM (inactive)
C=CCCC(=O)CC(=O)OCc1ccccc1,> 100 µM (inactive),> 100 µM (inactive),> 100 µM (inactive),> 100 µM (inactive),> 100 µM (inactive),> 100 µM (inactive),> 100 µM (inactive),> 100 µM (inactive),> 100 µM (inactive),> 100 µM (inactive),> 100 µM (inactive),> 100 µM (inactive),> 100 µM (inactive),–,> 100 µM (inactive),> 100 µM (inactive),> 100 µM (inactive),> 100 µM (inactive),> 100 µM (inactive)
